Assay in all cases: relative viability (nuclei count vs DMSO), 5 days (fraction); higher = more cells survive
Compound in experiment [1]: CC(C)CCN1c2nc(Nc3cc(F)c(O)c(F)c3)ncc2N(C)C(=O)C1C [BI-D1870] + Nc1ncn([C@H]2C[C@H](O)[C@@H](CO)O2)c(=O)n1 [Decitabine] (partner 2 µM)
A digest of the protocol: (§1)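 Lung cancer cell lines were seeded in 1536-well plates and dosed by pin tool the next day, with either a single drug or a fixed anchor-drug dose combined with five library-drug doses (not always all listed) spaced in √10 steps. Five days later, one step fixed the cells and stained their nuclei (final 0.05% Triton X-100, 1% formaldehyde, 1 ug/ml Hoechst), and nuclei were counted on 4× images. Relative viability is the nuclei count in treated wells divided by the count in vehicle wells, and each value is the median of duplicate plates.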

Compound in experiment [2]: CC(C)CCN1c2nc(Nc3cc(F)c(O)c(F)c3)ncc2N(C)C(=O)C1C [BI-D1870] + CCNC(=O)c1noc(-c2cc(C(C)C)c(O)cc2O)c1-c1ccc(CN2CCOCC2)cc1 [Luminespib] (partner 0.01 µM)
A digest of the protocol: as §1

Compound in experiment [3]: CC(C)CCN1c2nc(Nc3cc(F)c(O)c(F)c3)ncc2N(C)C(=O)C1C [BI-D1870] + N=C(N)NC(=N)NCCc1ccccc1 [Phenformin] (partner 250 µM)
A digest of the protocol:
as §1

Compound in experiment [4]: O=c1ncccn1[C@@H]1O[C@H](CO)[C@@H](O)[C@H]1O [Zebularine] + C[C@]1(O)C[C@@H](c2nc(-c3ccc4ccc(-c5ccccc5)nc4c3)c3c(N)nccn32)C1 [Linsitinib] (partner 1 µM)
A digest of the protocol:
as §1

The text below walks through data of the supplement of paper PMC10307832.

As to NCI-H1648, the relative viability is 0.463 in experiment [1] (first compound 0.04 µM), 0.505 in experiment [1] (first compound 0.1265 µM), 0.527 in experiment [1] (first compound 1.265 µM) and 0.578 in experiment [1] (first compound 4 µM).
As for SK-MES-1, the relative viability stood at 0.904 in experiment [2] (first compound 0.04 µM); 0.649 in experiment [2] (first compound 0.1265 µM); 0.66 in experiment [2] (first compound 0.4 µM); 0.535 in experiment [2] (first compound 1.265 µM); 0.251 in experiment [2] (first compound 4 µM); 0.732 in experiment [3] (first compound 0.04 µM). Moreover, the relative viability in experiment [3] (first compound 0.1265 µM) came to 0.593; in experiment [3] (first compound 0.4 µM), 0.613; in experiment [3] (first compound 1.265 µM), 0.648; in experiment [3] (first compound 4 µM) it was 0.363; in experiment [1] (first compound 0.04 µM) it was 0.395; in experiment [1] (first compound 0.1265 µM), 0.337. Further, the relative viability in experiment [1] (first compound 0.4 µM) came to 0.332; in experiment [1] (first compound 1.265 µM), 0.395; in experiment [1] (first compound 4 µM), 0.304; in experiment [4] (first compound 1 µM), 1.15; in experiment [4] (first compound 3.162 µM), 1.14; in experiment [4] (first compound 10 µM) it was 0.78. Moreover, the figures for the relative viability in experiment [4] (first compound 31.62 µM) and in experiment [4] (first compound 100 µM) were 0.567 and 0.299, respectively.
For HCC-366, the relative viability was found to be 0.705 in experiment [3] (first compound 0.04 µM); 0.587 in experiment [3] (first compound 0.1265 µM); 0.608 in experiment [3] (first compound 0.4 µM); 0.608 in experiment [3] (first compound 1.265 µM); 0.573 in experiment [3] (first compound 4 µM); 0.337 in experiment [1] (first compound 0.04 µM). Further, the relative viability in experiment [1] (first compound 0.1265 µM) is 0.306; in experiment [1] (first compound 0.4 µM), 0.322; in experiment [1] (first compound 1.265 µM), 0.469; in experiment [1] (first compound 4 µM), 0.414; in experiment [4] (first compound 1 µM), 0.764; in experiment [4] (first compound 3.162 µM), 0.75. Besides, the relative viability came to 0.428 in experiment [4] (first compound 10 µM), 0.355 in experiment [4] (first compound 31.62 µM) and 0.0776 in experiment [4] (first compound 100 µM).
In the case of 201T, the relative viability turned out to be 1.1 in experiment [2] (first compound 0.04 µM); 1.01 in experiment [2] (first compound 0.1265 µM); 1.06 in experiment [2] (first compound 0.4 µM); 1.07 in experiment [2] (first compound 1.265 µM); 1.12 in experiment [2] (first compound 4 µM); 0.457 in experiment [3] (first compound 0.04 µM). For the same cell line, the relative viability was found to be 0.47 in experiment [3] (first compound 0.1265 µM); 0.421 in experiment [3] (first compound 0.4 µM); 0.487 in experiment [3] (first compound 1.265 µM); 0.428 in experiment [3] (first compound 4 µM); 0.886 in experiment [1] (first compound 0.04 µM); 0.849 in experiment [1] (first compound 0.1265 µM). Further, the relative viability in experiment [1] (first compound 0.4 µM) was found to be 0.847; in experiment [1] (first compound 1.265 µM), 0.848; in experiment [1] (first compound 4 µM) it was 0.879; in experiment [4] (first compound 1 µM), 1.13; in experiment [4] (first compound 3.162 µM) it was 1.02; in experiment [4] (first compound 10 µM), 1.05. For the same cell line, the relative viability is 1.09 in experiment [4] (first compound 31.62 µM) and 1.04 in experiment [4] (first compound 100 µM).
Regarding HCC-827, the relative viability in experiment [2] (first compound 0.04 µM) was 0.629; in experiment [2] (first compound 0.1265 µM), 0.672; in experiment [2] (first compound 0.4 µM), 0.681; in experiment [2] (first compound 1.265 µM) it was 0.736; in experiment [2] (first compound 4 µM), 0.714; in experiment [3] (first compound 0.04 µM), 0.436. In addition, the relative viability in experiment [3] (first compound 0.1265 µM) was 0.38; in experiment [3] (first compound 0.4 µM), 0.375; in experiment [3] (first compound 1.265 µM) it was 0.436; in experiment [3] (first compound 4 µM) it was 0.366; in experiment [1] (first compound 0.04 µM) it was 0.333; in experiment [1] (first compound 0.1265 µM), 0.322. Moreover, the relative viability in experiment [1] (first compound 0.4 µM) was determined as 0.306; in experiment [1] (first compound 1.265 µM) it was 0.365; in experiment [1] (first compound 4 µM), 0.402; in experiment [4] (first compound 1 µM), 0.974; in experiment [4] (first compound 3.162 µM), 1.01; in experiment [4] (first compound 10 µM), 0.941. In addition, the relative viability in experiment [4] (first compound 31.62 µM) is 0.757; in experiment [4] (first compound 100 µM), 0.361.
As to NCI-H647, the relative viability in experiment [2] (first compound 0.04 µM) was 0.158; in experiment [2] (first compound 0.1265 µM) it was 0.0954; in experiment [2] (first compound 0.4 µM) it was 0.206; in experiment [2] (first compound 1.265 µM) it was 0.31; in experiment [2] (first compound 4 µM), 0.107; in experiment [3] (first compound 0.04 µM), 0.659. Further, the relative viability was found to be 0.466 in experiment [3] (first compound 0.1265 µM); 0.62 in experiment [3] (first compound 0.4 µM); 0.513 in experiment [3] (first compound 1.265 µM); 0.324 in experiment [3] (first compound 4 µM); 0.386 in experiment [1] (first compound 0.04 µM); 0.339 in experiment [1] (first compound 0.1265 µM). Moreover, the relative viability in experiment [1] (first compound 0.4 µM) is 0.481; in experiment [1] (first compound 1.265 µM), 0.455; in experiment [1] (first compound 4 µM) it was 0.537; in experiment [4] (first compound 1 µM), 1.42; in experiment [4] (first compound 3.162 µM) it was 1.06; in experiment [4] (first compound 10 µM) it was 0.426. In addition, the relative viability in experiment [4] (first compound 31.62 µM) was found to be 0.172; in experiment [4] (first compound 100 µM) it was 0.17.
For NCI-H2023, the relative viability turned out to be 1.03 in experiment [2] (first compound 0.04 µM); 0.48 in experiment [2] (first compound 0.1265 µM); 0.685 in experiment [2] (first compound 0.4 µM); 0.795 in experiment [2] (first compound 1.265 µM); 0.385 in experiment [2] (first compound 4 µM); 0.487 in experiment [3] (first compound 0.04 µM). Also, the relative viability is 0.367 in experiment [3] (first compound 0.1265 µM); 0.408 in experiment [3] (first compound 0.4 µM); 0.416 in experiment [3] (first compound 1.265 µM); 0.308 in experiment [3] (first compound 4 µM); 0.204 in experiment [1] (first compound 0.04 µM); 0.188 in experiment [1] (first compound 0.1265 µM). Besides, the relative viability turned out to be 0.232 in experiment [1] (first compound 0.4 µM); 0.248 in experiment [1] (first compound 1.265 µM); 0.281 in experiment [1] (first compound 4 µM); 0.664 in experiment [4] (first compound 1 µM); 0.689 in experiment [4] (first compound 3.162 µM); 0.604 in experiment [4] (first compound 10 µM). The relative viability came out at 0.63 in experiment [4] (first compound 31.62 µM) and 0.303 in experiment [4] (first compound 100 µM).
For NCI-H520, the relative viability amounted to 0.207 in experiment [2] (first compound 0.04 µM); 0.209 in experiment [2] (first compound 0.1265 µM); 0.243 in experiment [2] (first compound 0.4 µM); 0.22 in experiment [2] (first compound 1.265 µM); 0.194 in experiment [2] (first compound 4 µM); 0.514 in experiment [3] (first compound 0.04 µM). The relative viability amounted to 0.596 in experiment [3] (first compound 0.1265 µM); 0.584 in experiment [3] (first compound 0.4 µM); 0.537 in experiment [3] (first compound 1.265 µM); 0.429 in experiment [3] (first compound 4 µM); 0.406 in experiment [1] (first compound 0.04 µM); 0.494 in experiment [1] (first compound 0.1265 µM). For the same cell line, the relative viability in experiment [1] (first compound 0.4 µM) was determined as 0.597; in experiment [1] (first compound 1.265 µM), 0.649; in experiment [1] (first compound 4 µM), 0.471; in experiment [4] (first compound 1 µM), 0.98; in experiment [4] (first compound 3.162 µM) it was 1.02; in experiment [4] (first compound 10 µM), 0.47. Moreover, the relative viability turned out to be 0.297 in experiment [4] (first compound 31.62 µM) and 0.199 in experiment [4] (first compound 100 µM).
